# Laboratory results from publication PMC9343874, “Comparative Pharmacokinetics of Cinobufacini Capsule and Injection by UPLC-MS/MS” (Frontiers in Pharmacology, 2022).
# Read-outs that look alike come from different tables or passages of the source.
# Key:
# [1] = Pharmacokinetic study in rats after oral administration of cinobufacini capsule (UPLC-MS/MS of plasma); format: in vivo, rat; conditions: male, Sprague-Dawley, in vivo, rat plasma, mean ± SD, n = 6; for CL/F: read-out: CLz/F (converted); for MRT last: read-out: MRT0-t; for MRT inf: read-out: MRT0-∞; for half-life: read-out: T1/2z (converted); for Vd/F: read-out: Vz/F
# Method: Male Sprague–Dawley rats (weighing 200–220 g) of SPF grade were offered by Sippr/BK laboratory Animal, Corp., Ltd. (Shanghai, China) and fed in the Laboratory Animal Center of the Shanghai University of Traditional Chinese Medicine. All the rats were kept under environmentally controlled conditions with constant temperature (22–24°C) and humidity (60–65%). The animal experiment program in the present research was approved by the Animal Committee of the Shanghai University of Traditional Chinese Medicine (PZSHUTCM210618012).
# An Agilent 1290 liquid chromatographic system includes a G4220A quaternary pump, a G1326C column incubator, a G4226A automatic sampler, and a G1330B degasser. The column temperature was set to 35°C. A measure of 5 µL of samples were separated in an Agilent SB-C18 column (2.1 mm ×50 mm, 1.8 μm) and eluted at 0.3 ml/min, followed by gradient elution with water (0.1% V/V formic acid) (A) and acetonitrile (B) (0–1 min, 20%–20% B; 1–3.5 min, 20%–80% B; 4–4.1 min, 80%-20% B; 4.1–6 min, 20% B). The total run time was 6 minutes.
# An Agilent 1290 Infinity series UPLC system was combined with an Agilent 6460 series triple quadrupole mass spectrometer (Agilent Technologies, Santa Clara, CA, United States) to quantify all 13 analytes in an ESI-positive ionization mode. Quantitative analysis was performed in an MRM mode. The mass spectrum conditions were as follows: capillary voltage, 4000V; drying gas (N2), gas flow rate: 10 L/min; sprayer, 30 psi; gas temperature 350°C; The delta EMV (+) 200 V; collision gas (N2); dwell time, 25 ms. Agilent’s MassHunter Workstation software was used for data collection, peak area calculation, and quantitative analysis.
# A measure of 50 µL of the plasma sample was mixed with 10 µL of the internal standard solution (345 ng/ml) in a 1.5-ml centrifuge tube and vortexed for 5 min. The samples were extracted by 500 µL of ethyl acetate for 5 min and centrifuged at 4°C for 10 min (18000 rpm). All the supernatants were collected into another 1.5-ml centrifuge tube, dried under a gentle stream of nitrogen at 37°C, and then added with 50 µL of 80% methanol for resolution. The resolution samples were centrifuged at 4°C for 10 min (18000 rpm), and 5 µL supernatant was extracted and injected for analysis.
# Twenty-four male Sprague–Dawley rats (weigh 200–220 g) were divided into four groups with six rats in each group randomly, including three capsule groups at three different doses and one injection group. In the instructions for cinobufacini capsule and injection, the clinical dosage for adults is 2 g per 70 kg orally and 20 ml per 70 kg intravenously, converting to rat doses of 180 mg/kg and 1.8 ml/kg, respectively.
# In the pre-experiments, we compared cinobufacini capsule of 180 mg/kg (one-time clinical dose) and 900 mg/kg (five times of clinical dose) and Cinobufacini injection of 1.8 ml/kg, but concentrations of some compounds in plasma were too low and difficult to be quantified. […] The experimental rats were led to fast the night and were free to get access to water for 12 h before the pharmacokinetic study. After administration, blood samples (approximately 150 μL) of rats were collected via retro-orbital sinus into heparinized centrifuge tubes at 0.05, 0.083, 0.25, 0.5, 0.75, 1, 2, 4, 6, 8, and 10 h. After centrifugation at 5,000 rpm for 10 min, the plasma was transferred to 1.5-ml polypropylene tubes and stored at −80°C until UPLC-MS/MS analysis.
# GraphPad Prism software (version 8.0.2) was used to draw the mean plasma concentration–time curves of all analytes. The pharmacokinetic parameters were calculated by DAS 3.2.8 software. Meanwhile, the pharmacokinetic data on rats were presented as mean ± standard deviation (SD). Differences of pharmacokinetic parameters between groups were analyzed by the t-test using SPSS software (version 26.0). Differences were considered significant statistically when the p-values were <0.05 and very significant statistically when the p-values were <0.01.
# [2] = Stability of analytes in rat plasma QC samples under storage conditions; format: physicochemical; conditions: n = 6; for Stability during 24 h at 4°C, RE: post-treatment storage in autosampler; for −80°C for 30 days, RE / Three freeze–thaw cycles, RE: rat plasma; for −80°C for 30 days, RE: long-term; for Three freeze–thaw cycles, RE: −80°C to room temperature
# Method: The stability of QC samples in six replicates at three concentrations (low, medium, and high levels) was analyzed under different storage conditions: the post-treatment stability was analyzed after storage in an autosampler (4°C) for 24 h. Freeze–thaw stability was investigated after three freeze–thaw cycles (−80°C to room temperature as one cycle). Long-term stability was assessed by analyzing QC samples kept at −80°C for 30 days. The concentrations of the analytes in the plasma samples and the QC samples were calculated by the calibration standard curve prepared each day. The stabilities of analytes were acceptable when the accuracy (RE, %) and precision (RSD, %) of all QC samples in all storage conditions were within ±15% compared to nominal concentrations.
# [3] = oral cinobufacini capsule 0.9 g/kg (low)
# [4] = oral cinobufacini capsule 1.8 g/kg (medium)
# [5] = oral cinobufacini capsule 3.6 g/kg (high)
# [6] = high QC level (249.58–250.28 ng/ml)
# [7] = medium QC level (49.92–50.06 ng/ml)
Compound,"AUC(0-inf) [1, 3] [ng·h/mL]","AUC(0-t) [1, 3] [ng·h/mL]","Cmax [1, 3] [ng/mL]","Tmax [1, 3] [h]","CL/F [1, 3] [mL/min/kg]","MRT last [1, 3] [h]","MRT inf [1, 3] [h]","half-life [1, 3] [h]","Vd/F [1, 3] [L/kg]","AUC(0-inf) [1, 4] [ng·h/mL]","AUC(0-t) [1, 4] [ng·h/mL]","Cmax [1, 4] [ng/mL]","Tmax [1, 4] [h]","CL/F [1, 4] [mL/min/kg]","MRT last [1, 4] [h]","MRT inf [1, 4] [h]","half-life [1, 4] [h]","Vd/F [1, 4] [L/kg]","AUC(0-inf) [1, 5] [ng·h/mL]","AUC(0-t) [1, 5] [ng·h/mL]",other results
"C[C@]12CC[C@H]3[C@@H](CC[C@]4(O)C[C@@H](O)CC[C@]34C=O)[C@@]1(O)CC[C@@H]2c1ccc(=O)oc1 [HBG, hellebrigenin]",4.21 ± 2.23,3.97 ± 1.73,2.47 ± 1.38,0.94 ± 0.75,237,3.59 ± 1.63,3.81 ± 1.99,1.02 ± 0.6,14.2 ± 3.88,13.8 ± 5.4,13.7 ± 4.3,8.36 ± 2.92,0.68 ± 0.35,110,2.28 ± 1.26,2.55 ± 1.53,1.34 ± 1.09,11.1 ± 5.04,31.1 ± 11.4,31.1 ± 11.4,"Cmax [1, 5]: 18.2 ± 5.84 ng/mL; Tmax [1, 5]: 0.39 ± 0.2 h; CL/F [1, 5]: 118 mL/min/kg; MRT last [1, 5]: 2.14 ± 0.83 h; MRT inf [1, 5]: 2.14 ± 0.82 h; half-life [1, 5]: 0.63 ± 0.1 h; Vd/F [1, 5]: 6.35 ± 2.55 L/kg; Stability during 24 h at 4°C, RE [2, 6]: 0.8%; Stability during 24 h at 4°C, RE ([2]; low QC level (4.99–5.00 ng/ml)): 10.2%; Stability during 24 h at 4°C, RE [2, 7]: −4.7%; −80°C for 30 days, RE [2, 6]: −1.3%; −80°C for 30 days, RE ([2]; low QC level (4.99–5.00 ng/ml)): −5.0%; −80°C for 30 days, RE [2, 7]: 8.9%; Three freeze–thaw cycles, RE [2, 6]: 1.5%; Three freeze–thaw cycles, RE ([2]; low QC level (4.99–5.00 ng/ml)): 9.3%; Three freeze–thaw cycles, RE [2, 7]: −2.1%"
"C[C@]12CC[C@H](O)C[C@@]1(O)CC[C@@H]1[C@@H]2CC[C@]2(C)[C@@H](c3ccc(=O)oc3)[C@@H](O)[C@H]3O[C@]132 [DCT, desacetylcinobufotalin]",13.4 ± 3.76,13 ± 3.69,6.94 ± 5.35,0.87 ± 0.63,66,2.53 ± 0.99,2.95 ± 1.78,0.83 ± 0.25,5.16 ± 2.57,35.7 ± 12.1,34.2 ± 10.4,12.3 ± 3.11,0.61 ± 0.32,50.3,2.68 ± 0.88,3.1 ± 0.92,1.97 ± 1.36,8.27 ± 5.18,62.7 ± 16.8,61.2 ± 16.1,"Cmax [1, 5]: 22.2 ± 5.19 ng/mL; Tmax [1, 5]: 0.39 ± 0.2 h; CL/F [1, 5]: 42.5 mL/min/kg; MRT last [1, 5]: 2.28 ± 0.37 h; MRT inf [1, 5]: 2.53 ± 0.58 h; half-life [1, 5]: 1.53 ± 0.82 h; Vd/F [1, 5]: 5.59 ± 3.29 L/kg; Stability during 24 h at 4°C, RE [2, 6]: 9.6%; Stability during 24 h at 4°C, RE ([2]; low QC level (4.99–5.00 ng/ml)): 11.4%; Stability during 24 h at 4°C, RE [2, 7]: 7.3%; −80°C for 30 days, RE [2, 6]: 8.7%; −80°C for 30 days, RE ([2]; low QC level (4.99–5.00 ng/ml)): 2.4%; −80°C for 30 days, RE [2, 7]: 12.7%; Three freeze–thaw cycles, RE [2, 6]: 7.3%; Three freeze–thaw cycles, RE ([2]; low QC level (4.99–5.00 ng/ml)): 3.7%; Three freeze–thaw cycles, RE [2, 7]: 12.1%"
